Data: ChEMBL document CHEMBL1134716, “Synthesis and evaluation of GGPP geometric isomers: divergent substrate specificities of FTase and GGTase I” (Bioorg Med Chem Lett, 2001)
pIC50: −log10 of the molar value.

Biological target: Geranylgeranyl transferase type I (Homo sapiens, UniProt P49354+P53609)
Assay: Inhibition of recombinant mammalian Geranylgeranyl transferase type I expressed in baculovirus

SMILES | pIC50
CC(C)=CCC/C(C)=C/CC/C(C)=C/CC/C(C)=C\COP(=O)(O)OP(=O)(O)O | 7.00
CC(C)=CCC/C(C)=C/CC/C(C)=C\CC/C(C)=C/COP(=O)(O)OP(=O)(O)O | 6.47
